From the OPERA property sets (Mansouri et al. 2018)

Structure (SMILES)	melting point	boiling point	further results
C1CC2CC1C1OC21 (configuration not stated)	123 °C		
c1ccc2sc(SN(C3CCCCC3)C3CCCCC3)nc2c1	99.8 °C		ready biodegradability: not readily biodegradable
O=C(O)C(O)c1ccc(Br)cc1 (configuration not stated)	118 °C		
C=C(C)CCCC	-103 °C	92 °C	log10 vapour pressure (mmHg): 1.78
CC(C)(C)C(=O)C1C(=O)c2ccccc2C1=O	109 °C		
CC(C)COC(=O)OCC(C)C		190 °C	
CCCCCCCCCCCCCCc1ccccc1	16 °C	359 °C	log10 vapour pressure (mmHg): -4.62
C=CBr	-138 °C	15.8 °C	log10 vapour pressure (mmHg): 3.01
Oc1cccc(O)c1	111 °C	280 °C	log10 Koc (L/kg): 0.98; log10 vapour pressure (mmHg): -3.31; ready biodegradability: readily biodegradable
Clc1ccc(-c2c(Cl)cc(Cl)c(Cl)c2Cl)c(Cl)c1Cl			log10 Koa: 10.2; log10 vapour pressure (mmHg): -5.85; log10 biotransformation half-life (days) (fish): 2.52
COc1ccc(C(=O)c2cccc(C)c2)cc1C	62.3 °C		
CN1C(=O)C(=NNC(N)=S)c2ccccc21	245 °C		
CNc1ccc(NCCO)c2c1C(=O)c1ccccc1C2=O	187 °C		
CCc1ccc[nH]1		164 °C	
O=S(=O)(O)NC1CCCCC1	170 °C		
CC1CCCC(C)N1C(=O)COC(=O)c1ccccc1 (configuration not stated)	118 °C		
Nc1ccc(-c2ccccc2N)cc1	54.5 °C	363 °C	
CC(=O)c1cccnc1	13.5 °C	220 °C	log10 Henry constant (atm·m³/mol): -7.67
C1COCCO1	11.8 °C	102 °C	log10 Henry constant (atm·m³/mol): -5.32; log10 Koa: 3.18; log10 Koc (L/kg): 1.23; log10 vapour pressure (mmHg): 1.58; ready biodegradability: not readily biodegradable; log10 BCF (fish): -0.3
O=P(O)(O)c1ccccc1	164 °C		
Brc1ccc2oc3ccccc3c2c1	110 °C		

Structure (SMILES)	melting point	boiling point	further results
c1ccc(-c2ccccn2)nc1	72 °C	274 °C	log10 Koc (L/kg): 1.6
Cc1ccc(Nc2ccc(C)cc2)cc1	79.8 °C	330 °C	
CCCC1CCCC(C)C1 (configuration not stated)		164 °C	
CCC(=O)c1ccco1	28 °C		
CCOc1cc(NC(C)=O)ccc1C(=O)OC	148 °C		
CC(C)(C)NSc1nc2ccccc2s1			log10 vapour pressure (mmHg): -6.34
CC(=O)CC(c1ccc([N+](=O)[O-])cc1)c1c(O)c2ccccc2oc1=O (configuration not stated)	197 °C		
O=C(Cl)c1ccc(Br)cc1	42 °C	246 °C	
BrCCCCCCBr	-2.3 °C	246 °C	
FC1(F)C(F)(F)C(F)(F)C2(F)C(F)(C1(F)F)C(F)(F)C(F)(F)C1(F)C(F)(F)C(F)(F)C(F)(F)C(F)(F)C12F (configuration not stated)	-20 °C	210 °C	
O=C(O)COc1ccc(Cl)cc1	164 °C		
C1CC2CCCC2C1 (configuration not stated)		139 °C	
CC(=O)C1CCc2ccccc2C1=O (configuration not stated)	56 °C		
COc1ccc(C(=O)Cc2c(CCN(C)C)cc3c(c2OC)OCO3)c(C(=O)O)c1OC	138 °C		
Cc1ccc(NC(=O)c2ccccc2)cc1	158 °C		
CN(C)CCCN(C)C		144 °C	
NC(Cc1ccccc1)C(=O)O (configuration not stated)			ready biodegradability: readily biodegradable
BrCC(Br)c1ccccc1 (configuration not stated)	75 °C		log10 vapour pressure (mmHg): -1.97
CCC(=O)OC1CCCCC1		193 °C	
OC[C@H]1O[C@H](O[C@]2(CCl)O[C@H](CCl)[C@@H](O)[C@@H]2O)[C@H](O)[C@@H](O)[C@H]1Cl	130 °C		
COC(=O)c1ccc(C)cc1C	-2 °C	232 °C	

Structure (SMILES)	melting point	boiling point	further results
c1ccc2c(c1)Nc1ccccc1O2	156 °C		
O=C(Br)c1ccccc1	-24 °C	218 °C	log10 vapour pressure (mmHg): -0.654
Brc1ccccc1I	9.5 °C	257 °C	
O=C(O)c1ccc(Br)c([N+](=O)[O-])c1	204 °C		
CC(C)(C)Cl	-26 °C	50.5 °C	ready biodegradability: not readily biodegradable
C=Cc1c(Cl)cccc1Cl	89 °C		
CC(Cc1ccc(C(C)(C)C)cc1)CN1C[C@@H](C)O[C@@H](C)C1 (single isomer, unassigned)			log10 vapour pressure (mmHg): -4.59
NC(=O)c1ccc(Cl)cc1	174 °C		
CC(Cl)C[N+](=O)[O-] (configuration not stated)		172 °C	
CCc1nccnc1CC		181 °C	
C1=CCSC1		122 °C	
CSCc1ccccc1	-30 °C	210 °C	
CN(C)S(=O)(=O)N(SC(F)(Cl)Cl)c1ccccc1	106 °C		log10 vapour pressure (mmHg): -6.95; ready biodegradability: not readily biodegradable
CCCCCCCCC(=O)OCCCCC	-27 °C		
Clc1ccc(Cl)c(-c2c(Cl)c(Cl)cc(Cl)c2Cl)c1Cl			log10 Henry constant (atm·m³/mol): -4.62
CCOC(=O)C(Cl)CCl (configuration not stated)		184 °C	
CC(C)CCCCCO	-106 °C	188 °C	
Cc1nc2ccccc2[nH]1	176 °C		
Oc1ccccc1I	43 °C		ready biodegradability: not readily biodegradable
